Test results: patent US10501455B2, “Inhibitors of leukotriene A4 hydrolase” (Celtaxsys, Inc., priority 2013, dated 2019)

Assays:
LTA4-h [1] = target: T1, LTA4-h (Homo sapiens, UniProt P09960); assay: Peptidase (aminopeptidase) assay; type: biochemical; conditions: for inhibition at 3 µM: read-out: Peptidase % inhibition
T1 sequence (P09960 1-611): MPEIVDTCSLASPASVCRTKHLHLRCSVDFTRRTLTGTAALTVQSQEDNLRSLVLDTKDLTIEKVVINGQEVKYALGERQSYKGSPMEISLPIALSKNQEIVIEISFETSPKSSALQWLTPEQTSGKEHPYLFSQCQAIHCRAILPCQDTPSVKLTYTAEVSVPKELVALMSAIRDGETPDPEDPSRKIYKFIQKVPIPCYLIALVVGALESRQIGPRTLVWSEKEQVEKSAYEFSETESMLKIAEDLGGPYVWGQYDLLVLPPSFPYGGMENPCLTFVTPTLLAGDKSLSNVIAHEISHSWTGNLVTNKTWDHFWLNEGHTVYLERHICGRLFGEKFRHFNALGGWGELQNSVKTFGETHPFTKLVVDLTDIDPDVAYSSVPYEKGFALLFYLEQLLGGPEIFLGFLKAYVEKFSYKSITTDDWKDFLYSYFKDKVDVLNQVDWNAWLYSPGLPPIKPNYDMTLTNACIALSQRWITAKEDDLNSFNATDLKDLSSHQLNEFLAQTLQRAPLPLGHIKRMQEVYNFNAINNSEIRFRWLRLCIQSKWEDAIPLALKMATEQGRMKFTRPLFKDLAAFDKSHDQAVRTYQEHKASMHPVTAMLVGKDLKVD
Experimental: Since LTA4-h hydrolase is grouped with the M1 family of zinc metalloproteases (see, Rudberg, P. C. et al., J. Biol. […] The whole blood and aminopeptidase assays were performed as described in Penning et al., J. Med.

LTA4-h [2] = target: T1, LTA4-h; assay: Hydrolase assay (hydrolase-homogeneous time resolved fluorescence, LTB4 produced); type: biochemical
Text: The compounds of the invention can be tested for their ability to inhibit LTA4-h by various known assays and by assays described herein. For example, the compounds can be tested for their ability to inhibit LTA4-h activity by assaying the compounds in the hydrolase-homogeneous time resolved fluoroescence assay. This assay, which is a two-step assay, measures the hydrolysis of […] to LTB4 by analyzing the amount of LTB4 produced. The first step involves the enzymatic conversion of […] to LTB4 and the second step involves the quantification of the […] with a homogeneous time resolved fluoroescence assay.
The whole blood and aminopeptidase assays were performed as described in Penning et al., J. Med. Chem. 2000, 43, 721-735, and Rudberg et al., J. Biol. Chem. Vol. 279, No. 26, Issue of June 25, pp. 27376-27382, 2004, the contents of each of which are expressly incorporated by reference herein. The hydrolase assay was performed as described in U.S. Pat. No. 7,737,145, the contents of which are expressly incorporated herein.

| Structure (SMILES) | inhibition at 3 µM (LTA4-h [1]; at 3 uM) [%] | IC50 (LTA4-h [1]) [nM] | also measured |
| --- | --- | --- | --- |
| COC(=O)c1ccc(CN(CC2CCN(C(=O)OC(C)(C)C)C2)c2ccc(Oc3ccc(Cl)cc3)cc2)cc1 (centres unmarked) [Compound 9] | 56 |  |  |
| COC(=O)c1ccc(CN(CC2CCN(Cc3ccccc3)C2)c2ccc(Oc3ccc(Cl)cc3)cc2)cc1 (centres unmarked) [Compound 14] |  | 200 |  |
| O=C(O)c1ccc(CN(CC2CCN(Cc3ccc(F)cc3)C2)c2ccc(Oc3ccc(Cl)cc3)cc2)cc1 (centres unmarked) [Compound 16] |  | 1600 | IC50 (LTA4-h [2]): 2200 nM |
| O=C(O)c1ccc(CN(CC2CCN(Cc3ccccc3)C2)c2ccc(Oc3ccc(Cl)cc3)cc2)cc1 (centres unmarked) [Compound 17] |  | 1500 |  |
| CC(C)(C)OC(=O)N1CCC(CN(Cc2ccccc2)c2ccc(Oc3ccc(Cl)cc3)cc2)C1 (centres unmarked) [Compound 18] | 0 |  |  |
| CC(C)(C)OC(=O)N1CCC(CN(Cc2ccc(F)cc2)c2ccc(Oc3ccc(Cl)cc3)cc2)C1 (centres unmarked) [Compound 19] | 47 |  |  |
| COC(=O)c1ccc(CN2CCC(CN(Cc3ccc(F)cc3)c3ccc(Oc4ccc(Cl)cc4)cc3)C2)cc1 (centres unmarked) [Compound 22] | 59 |  |  |
| COC(=O)c1ccc(CN2CCC(CN(Cc3ccccc3)c3ccc(Oc4ccc(Cl)cc4)cc3)C2)cc1 (centres unmarked) [Compound 23] | 40 |  |  |
| O=C(O)c1ccc(CN2CCC(CN(Cc3ccc(F)cc3)c3ccc(Oc4ccc(Cl)cc4)cc3)C2)cc1 (centres unmarked) [Compound 24] |  | 530 | IC50 (LTA4-h [2]): 870 nM |
| COC(=O)c1ccc(CN(CC2CN(C(=O)OC(C)(C)C)C2)c2ccc(Oc3ccc(Cl)cc3)cc2)cc1 [Compound 26] | 42 |  |  |
| CC(C)(C)OC(=O)CN(CC1CCN(C(=O)OC(C)(C)C)C1)c1ccc(Oc2ccc(Cl)cc2)cc1 (centres unmarked) [Compound 27] | 7 |  |  |
| COC(=O)c1cccc(CN(CC2CN(C(=O)OC(C)(C)C)C2)c2ccc(Oc3ccc(Cl)cc3)cc2)c1 [Compound 31] |  | 76 | inhibition at 3 µM (LTA4-h [2]; at 3 uM): > 5% |
| COC(=O)c1cccc(CN(CC2CCN(C(=O)OC(C)(C)C)C2)c2ccc(Oc3ccc(Cl)cc3)cc2)c1 (centres unmarked) [Compound 33] | 22 |  |  |
| COC(=O)c1cccc(CN(CC2CCNC2)c2ccc(Oc3ccc(Cl)cc3)cc2)c1 (centres unmarked) [Compound 34] |  | 62 |  |
| COC(=O)c1cccc(CN(CC2CNC2)c2ccc(Oc3ccc(Cl)cc3)cc2)c1 [Compound 35] |  | 33 |  |
| O=C(O)c1cccc(CN(CC2CCNC2)c2ccc(Oc3ccc(Cl)cc3)cc2)c1 (centres unmarked) [Compound 36] |  | 60 | IC50 (LTA4-h [2]): 12 nM |
| O=C(O)c1cccc(CN(CC2CNC2)c2ccc(Oc3ccc(Cl)cc3)cc2)c1 [Compound 37] |  | 35 | IC50 (LTA4-h [2]): 62 nM |
| NS(=O)(=O)c1ccc(CN(CC2CCNC2)c2ccc(Oc3ccc(Cl)cc3)cc2)cc1 (centres unmarked) [Compound 38] |  | 26 | IC50 (LTA4-h [2]): 12 nM |
| CC(C)(C)OC(=O)N1CCC(CN(Cc2ccc([N+](=O)[O-])cc2)c2ccc(Oc3ccc(Cl)cc3)cc2)C1 (centres unmarked) [Compound 39] |  |  | inhibition at 3 µM (LTA4-h [1]): 19% |
| COC(=O)c1coc(CN(CC2CCNC2)c2ccc(Oc3ccc(Cl)cc3)cc2)n1 (centres unmarked) [Compound 40] |  | 125 |  |
| Clc1ccc(Oc2ccc(NC[C@@H]3CCCN3)cc2)cc1 [Compound 42] |  | 70 |  |
| CC(C)(C)OC(=O)N1CCC[C@H]1CN(Cc1ccc(S(N)(=O)=O)cc1)c1ccc(Oc2ccc(Cl)cc2)cc1 [Compound 43] |  |  | inhibition at 1 µM (LTA4-h [1]; at 1 uM): 0% |
| NS(=O)(=O)c1ccc(CN(C[C@@H]2CCCN2)c2ccc(Oc3ccc(Cl)cc3)cc2)cc1 [Compound 44] |  | 110 |  |
